From patent publication US12018041B2, “Metal tin cyclized perylene diimide derivative, method for preparing the same, and method for using the same” (Dalian University of Technology, priority 2019, dated 2024)

Experiments:
[1] = UV-Vis absorption spectrum in a solution state; format: physicochemical; details: compared with the corresponding perylene diimide without tin ring
[2] = Singlet oxygen quantum yield by DPBF capture in DCM; format: physicochemical; details: absorbance change at 414 nm
Source text: (4) The triplet energy of the photosensitizer can be transferred to triplet oxygen molecules (^3O2), to produce singlet oxygen molecules (^1O2). 1,3-diphenylisobenzofuran (DPBF) is used to capture singlet oxygen, and at the same time, DPBF itself is oxidized by ^1O2, resulting in a decrease in the absorption peak of DPBF at 414 nm in the UV-visible absorption spectrum. The singlet oxygen quantum yield of the photosensitizer molecule can be calculated by monitoring the absorbance change of DPBF at 414 nm. FIG. 4 is a graph showing decay of a UV-visible absorption of DPBF in DCM with time under the influence of 6-undecylamine derived tin cyclized perylene diimide as a photosensitizer. It is known from calculation that the singlet oxygen quantum yield of 6-undecylamine derived tin cyclized perylene diimide is 40%.

[3] = Transient absorption spectrum and triplet decay; format: physicochemical; details: dynamic absorption fitting at 485 nm in the transient absorption spectrum
Experimental: (2) The transient absorption spectrum of 6-undecylamine derived tin cyclized perylene diimide (shown in FIG. 2) was tested, and a strong excited triplet absorption at 400 nm-515 nm was detected.
The decay time is 17 μs. 6-undecylamine derived tin cyclized perylene diimide has a relatively long triplet time life.

cervical cancer cells = assay: DCFH-DA reactive oxygen imaging in cervical cancer cells; format: cell-based; details: cervical cancer cells with DCFH-DA
Source text: (5) The application of photosensitizers to photodynamic therapy requires the photosensitizers to have low cytotoxicity and capability of entering cells, and to achieve better singlet oxygen output in the cells. In cervical cancer cells, the fluorescent probe DCFH-DA, as a reactive oxygen detection reagent, is non-fluorescent and can freely penetrate the cell membrane to enter the cell. The reactive oxygen species (single oxygen) in the cells can oxidize the non-fluorescent DCFH to produce a fluorescent DCF, and the level of the reactive oxygen species can be known by detecting the fluorescence intensity of DCF. […] In the figure, fluorescence images of the cervical cancer cells, which are cultured in the presence of 6-undecylamine derived tin cyclized perylene diimide and DCFH-DA, subjected to no light, and 10 s, 20 s, 30 s of […] green light irradiation are respectively presented from left to right. It is known from the figure that the singlet oxygen generated from photosensitization of 6-undecylamine derived tin cyclized perylene diimide oxidizes DCFH to produce fluorescent DCF, which makes the fluorescence of cervical cancer cells appear by imaging, and the imaging effect becomes better along with the time.

Compound | Absorption spectrum [1] | Singlet oxygen quantum yield [2] [%] | Triplet decay time [3] [μs] | irradiation time after which fluorescence intensity of cervical cancer cells no longer changes (cervical cancer cells; 420 nm green light irradiation) [s] | singlet oxygen effect in cells (DCF fluorescence) (cervical cancer cells; no light and 10 s, 20 s, 30 s of 420 nm green light irradiation)
CCC[CH2][Sn]1([CH2]CCC)[c]2cc3c4c(ccc5c6ccc7c8c(c[c]1c(c2c45)c86)C(=O)N(C1CCNCC1)C7=O)C(=O)N(C1CCNCC1)C3=O [Example B22] | red shift | 44 | 21 | – | –
CCCCCC(CC(C)CCC)N1C(=O)c2ccc3c4ccc5c6c(c[c]7c(c8[c](cc(c2c38)C1=O)[Sn]7([CH2]CCC)[CH2]CCC)c64)C(=O)N(C(CCCCC)CC(C)CCC)C5=O (centres unmarked) [Example B4] | red shift | 47 | 17 | – | –
CCC[CH2][Sn]1([CH2]CCC)[c]2cc3c4c(ccc5c6ccc7c8c(c[c]1c(c2c45)c86)C(=O)N(c1cccc2[nH]ncc12)C7=O)C(=O)N(c1cccc2[nH]ncc12)C3=O [Example B16] | red shift | 46 | 19 | – | –
CCC[CH2][Sn]1([CH2]CCC)[c]2cc3c4c(ccc5c6ccc7c8c(c[c]1c(c2c45)c86)C(=O)N(c1ccncc1)C7=O)C(=O)N(c1ccncc1)C3=O [Example B20] | red shift | 42 | 25 | – | –
CCCCCC(CCCCC)N1C(=O)c2ccc3c4ccc5c6c(c[c]7c(c8[c](cc(c2c38)C1=O)[Sn]7([CH2]CCC)[CH2]CCC)c64)C(=O)N(C(CCCCC)CCCCC)C5=O [6-undecylamine derived tin cyclized perylene diimide] | obvious red shift | 40 | 17 | 20 | good singlet oxygen effect in cells
CCC[CH2][Sn]1([CH2]CCC)[c]2cc3c4c(ccc5c6ccc7c8c(c[c]1c(c2c45)c86)C(=O)N(c1cccc2ccccc12)C7=O)C(=O)N(c1cccc2ccccc12)C3=O [Example B17] | red shift | 36 | 11 | – | –
CCC[CH2][Sn]1([CH2]CCC)[c]2cc3c4c(ccc5c6ccc7c8c(c[c]1c(c2c45)c86)C(=O)N(CC(C)C)C7=O)C(=O)N(CC(C)C)C3=O [Example B6] | red shift | 29 | 18 | – | –
CCC[CH2][Sn]1([CH2]CCC)[c]2cc3c4c(ccc5c6ccc7c8c(c[c]1c(c2c45)c86)C(=O)N(c1ccc(C(C)(C)C)cc1)C7=O)C(=O)N(c1ccc(C(C)(C)C)cc1)C3=O [Example B14] | red shift | 33 | 14 | – | –
CCC[CH2][Sn]1([CH2]CCC)[c]2cc3c4c(ccc5c6ccc7c8c(c[c]1c(c2c45)c86)C(=O)N(CCCC(C)C)C7=O)C(=O)N(CCCCC(CC)CCC)C3=O (centres unmarked) [Example B10] | red shift | 26 | 12 | – | –
